From US20220281879A1, “SALT AND CRYSTAL FORMS OF AN ACTIVIN RECEPTOR-LIKE KINASE INHIBITOR” (Blueprint Medicines Corporation, priority 2019, published 2022)
Converted amounts (≈) assume the structure as drawn. “Also recorded” adds a separate entry of the source. Counter-ions that a name gives are not always drawn. Like-named read-outs stand apart in the source and are kept apart here.

Experiments:
[1] = Drying and humidity exposure (>90% RH) with XRPD; conditions: for stability on drying and humidity exposure: dried under vacuum at 50° C., then >90% RH one day; for stability on drying and humidity exposure / physical stability on humidity exposure: XRPD; for physical stability on humidity exposure: >90% RH, overnight / one day; for physical stability in humid environment, prolonged: >90% relative humidity, days to one week
Experimental: XRPD analysis was done in three stages. XRPD of the wet cake was done for all samples (where solids were observed). Unique solids were then left on XRPD plates and dried under vacuum at 50° C. for at least 3 hours. XRPD of unique dry solids was then done. Solids were then exposed to >90% relative humidity for one day and XRPD on resulted solids was done. The humid environment was generated by placing a beaker of saturated potassium sulfate in water in a sealed container. All XRPD patterns were compared to counter ion XRPD patterns and known free molecule patterns.
A crystalline form of the free base was exposed to high humidity (>90% RH) overnight. The humid environment was generated by placing a beaker of saturated potassium sulfate in water in a sealed container.

[2] = Exposure to dry conditions and re-humidification with XRPD; type: physicochemical
Experimental: The 1:1 Compound (I) Crystalline HCl salt Monohydrate obtained from Example 3.1 was exposed to various drying conditions and then analyzed by XRPD.
The conditions were: (1) room temperature in vial containing P2O5 at 50° C., (2) 60° C. under vacuum, and (3) heating to 140° C. in DSC.
The HCl salt exposed to P2O5 at 50° C. was sampled for XRPD at the 7 day mark.

[3] = Humidity exposure at 75% relative humidity / 40° C. for one week with XRPD; conditions: 75% RH / 40° C.
Experimental: The Sesqui-Succinate obtained in Example 2.1 was exposed to 75% relative humidity at 40° C. for one week. The samples were placed in a 4 mL vial covered with a Kimwipe® and then placed in a 20 mL vial containing 3-4 mL saturated NaCl in water. The 20 mL vials were sealed and held at 40° C. Solids were collected for XRPD analysis after one week.
HCl salt Monohydrate Form A was placed at 40° C./75% relative humidity for one week. About 10 mg sample was placed in a 4 mL vial covered with a Kimwipe®. The vial was then placed inside a 20 mL sealed vial containing saturated aqueous sodium chloride.

[4] = Solubility at 37° C. in water and simulated fluids (FaSSIF, FaSSGF); type: physicochemical; conditions: for Solubility at 37° C. FaSSGF: fasted state simulated gastric fluid; for Solubility at 37° C. FaSSIF: fasted state simulated intestinal fluid
Text: Crystalline salts were characterized and evaluated for viability based on melting point, crystallinity, stability on drying and humidity exposure, water solubility, polymorphism, and acceptability of counter-ion.

[5] = Dynamic Vapor Sorption (DVS); type: physicochemical; conditions: for XRPD after DVS measurement: after 2-95% RH cycle; for DVS Mass Change: between 2 and 95% relative humidity at 25° C.
Experimental: Dynamic Vapor Sorption (DVS) was done using a DVS Intrinsic 1. The sample was loaded into a sample pan and suspended from a microbalance. A typical sample mass for DVS measurement is 25 mg. Nitrogen gas bubbled through distilled water provides the desired relative humidity. The sample was held for a minimum of 5 min at each level and only progressed to the next humidity level if there was <0.002% change in weight between measurements (interval: 60 seconds) or […] had elapsed. A typical measurement comprises the steps: • 1—Equilibrate at 50% RH • 2—50% to 2%. (50%, 40%, 30%, 20%, 10% and 2%) • a. Hold minimum of 5 mins and maximum of 60 minutes at each humidity. • The pass criteria is less than 0.002% change • 3—2% to 95% (2%, 10%, 20%, 30%, 40%, 50%, 60%, 70%, 80%, 90%, 95%) • a. Hold minimum of 5 mins and maximum of 60 minutes at each humidity.
The pass criteria is less than 0.002% change • 4—95% to 2% (95%, 80%, 70%, 60%, 50%, 40%, 30%, 20%, 10%, 2%) • a. Hold minimum of 5 mins and maximum of 60 minutes at each humidity. • The pass criteria is less than 0.002% change • 5—2% to 50% (2%, 10%, 20%, 30%, 40%, 50%) • a. Hold minimum of 5 mins and maximum of 60 minutes at each humidity. • The pass criteria is less than 0.002% change

[6] = Variable humidity and variable temperature XRPD (VH-XRPD, VT-XRPD); type: physicochemical; conditions: for variable humidity XRPD: change of crystalline structure: 0-90% RH; for variable temperature XRPD: change of crystalline structure: ambient to 160° C.
Experimental: Powder X-ray diffraction was done using a Rigaku MiniFlex 600 or a Bruker D8 Advance equipped with Lynxeye detector in reflection mode (i.e. Bragg-Brentano geometry). Samples were prepared on Si zero-return wafers. A typical scan is from 2θ of 4 to 30 degrees, with step size 0.05 degrees over five minutes with 40 kV and 15 mA. A high-resolution scan is from 2θ of 4 to 40 degrees, with step size 0.05 degrees over thirty minutes with 40 kV and 15 mA. Typical parameters for XRPD are listed below.

[7] = Solubility in organic solvent systems at room temperature; type: physicochemical; conditions: organic solvent or mixture, most organic solvents tested
[8] = listed as Compound (I) Sesqui-Succinate Form A
[9] = listed as Compound (I) Sesqui-Succinate salt Form A
[10] = listed as HCl salt Monohydrate Form A
[11] = listed as free base of Compound (I)

CCOC1(c2ccc(-c3cc4c(N5CCN(C(=O)O[C@@H]6CCOC6)CC5)ccnn4c3)nc2)CCN(C(C)C)CC1 [fumarate Form B]
stability on drying and humidity exposure [1]: stable on drying and humidity exposure

CCOC1(c2ccc(-c3cc4c(N5CCN(C(=O)O[C@@H]6CCOC6)CC5)ccnn4c3)nc2)CCN(C(C)C)CC1 [Form D]
form conversion on exposure to ambient conditions ([2]; bench, 22-23° C., 28-35% RH, 2.25 hours): converted to Form A
physical stability on humidity exposure [1]: converted to Form A (monohydrate)
physical stability after one week humidity exposure [3]: converted to Form A (monohydrate)

CCOC1(c2ccc(-c3cc4c(N5CCN(C(=O)O[C@@H]6CCOC6)CC5)ccnn4c3)nc2)CCN(C(C)C)CC1 [bis-HCl]
physical stability on humidity exposure [1]: deliquesced
physical stability on humidity exposure ([1]; listed as 2:1 HCl): deliquescence

CCOC1(c2ccc(-c3cc4c(N5CCN(C(=O)O[C@@H]6CCOC6)CC5)ccnn4c3)nc2)CCN(C(C)C)CC1 [Besylate]
physical stability on humidity exposure [1]: deliquesced
physical stability on humidity exposure ([1]; listed as besylate): deliquescence

CCOC1(c2ccc(-c3cc4c(N5CCN(C(=O)O[C@@H]6CCOC6)CC5)ccnn4c3)nc2)CCN(C(C)C)CC1 [Salicylate]
physical stability on humidity exposure ([1]; listed as salicylic acid): did not deliquesce

CCOC1(c2ccc(-c3cc4c(N5CCN(C(=O)O[C@@H]6CCOC6)CC5)ccnn4c3)nc2)CCN(C(C)C)CC1 [Benzoate]
water solubility (in words) ([4]; salt screening evaluation): poor water solubility
physical stability on humidity exposure ([1]; listed as benzoic acid): did not deliquesce

CCOC1(c2ccc(-c3cc4c(N5CCN(C(=O)O[C@@H]6CCOC6)CC5)ccnn4c3)nc2)CCN(C(C)C)CC1 [Amorphous solid (Compound (I) Sesqui-Succinate)]
physical stability after one week humidity exposure [3]: crystalline Form A

CCOC1(c2ccc(-c3cc4c(N5CCN(C(=O)O[C@@H]6CCOC6)CC5)ccnn4c3)nc2)CCN(C(C)C)CC1 [Succinate Form A]
solubility in water and in simulated gastric fluids (in words) [4]: good solubility
Solubility at 37° C. FaSSGF [4]: >25.9 mg/mL
Solubility at 37° C. FaSSIF [4]: >22.2 mg/mL
solubility in water and simulated fluids (all fluids) ([4]; in all fluids): > 22 mg/mL
Solubility at 37° C. Water ([4]; water): >34.0 mg/mL
solubility ([4]; water, FaSSIF and FaSSGF (all fluids), thermodynamic from solid, in all fluids): > 22 mg/mL
hygroscopicity (in words) [5]: less hygroscopic than the mono-HCl salt and freebase
DVS mass change occurring above 80% relative humidity ([5]; 25° C., above 80% RH): 0.34-0.35 wt. %
XRPD after DVS measurement [5, 8]: remained as Form-A
DVS Mass Change [5]: 0.59-0.60 wt. %
DVS Mass Change [5, 8]: 0.59-0.60 wt. %
hygroscopicity (in words) ([5]; listed as 1.5:1 succinic acid salt): non-hygroscopic
variable humidity XRPD: change of crystalline structure [6, 9]: no change in the crystalline structure
variable temperature XRPD: change of crystalline structure [6, 9]: no change in the crystalline structure
physical stability on humidity exposure ([1]; listed as succinic acid): did not deliquesce
stability on drying and humidity exposure [1]: stable on drying and humidity exposure
physical stability after one week humidity exposure [3, 8]: physically stable by XRPD

CCOC1(c2ccc(-c3cc4c(N5CCN(C(=O)O[C@@H]6CCOC6)CC5)ccnn4c3)nc2)CCN(C(C)C)CC1 [Mono-HCl Form A]
solubility in water and in simulated gastric fluids (in words) [4]: good solubility
Solubility at 37° C. FaSSGF [4]: 6.96 mg/mL
Solubility at 37° C. FaSSGF ([4]; listed as mono-HCl salt): > 30 mg/mL
Solubility at 37° C. FaSSIF [4]: 30.9 mg/mL
Solubility at 37° C. FaSSIF ([4]; listed as mono-HCl salt): ~7 mg/mL
Solubility at 37° C. Water ([4]; water): 33.4 mg/mL
Solubility at 37° C. Water ([4]; water, listed as mono-HCl salt): > 30 mg/mL
DVS mass change occurring below 20% relative humidity ([5]; 25° C., below 20% RH): 0.99-1.11 wt. %
XRPD after DVS measurement [5, 10]: extra peaks were observed
DVS Mass Change [5]: 1.30-1.43 wt. %
DVS Mass Change [5, 10]: 1.30-1.43 wt. %
hygroscopicity (in words) ([5]; listed as 1:1 hydrochloric acid salt): non-hygroscopic
variable humidity XRPD: change of crystalline structure [6, 10]: small shift
variable temperature XRPD: change of crystalline structure [6, 10]: does not appear to collapse and/or re-arrange
XRPD after exposure to drying conditions ([2]; P2O5 at 50° C., 60° C. under vacuum, heating to 140° C. in DSC): a new XRPD pattern was observed
physical stability on humidity exposure ([1]; listed as HCl (1 eq.)): did not deliquesce
physical stability after one week humidity exposure [3, 10]: minor peak shifts

CCOC1(c2ccc(-c3cc4c(N5CCN(C(=O)O[C@@H]6CCOC6)CC5)ccnn4c3)nc2)CCN(C(C)C)CC1 [fumarate]
solubility in water and in simulated gastric fluids (in words) [4]: good solubility

CCOC1(c2ccc(-c3cc4c(N5CCN(C(=O)O[C@@H]6CCOC6)CC5)ccnn4c3)nc2)CCN(C(C)C)CC1 [maleate]
physical stability on humidity exposure [1]: deliquescence; also recorded: deliquesced
physical stability on humidity exposure ([1]; listed as maleic acid): deliquesced

CCOC1(c2ccc(-c3cc4c(N5CCN(C(=O)O[C@@H]6CCOC6)CC5)ccnn4c3)nc2)CCN(C(C)C)CC1 [Form I]
physical stability on humidity exposure [1]: partially converted to Form A

CCOC1(c2ccc(-c3cc4c(N5CCN(C(=O)O[C@@H]6CCOC6)CC5)ccnn4c3)nc2)CCN(C(C)C)CC1 [Compound (I)]
Solubility at 37° C. FaSSGF ([4]; listed as Freebase): 7.29 mg/mL (≈ 13 mM)
Solubility at 37° C. FaSSGF ([4]; listed as freebase): ~17 mg/mL (≈ 30.2 mM)
Solubility at 37° C. FaSSIF ([4]; listed as Freebase): 17.9 mg/mL (≈ 31.8 mM)
Solubility at 37° C. FaSSIF ([4]; listed as freebase): ~7 mg/mL (≈ 12.4 mM)
Solubility at 37° C. Water ([4]; water, listed as freebase): 0.08 mg/mL (≈ 0.142 mM)
solubility [7]: > 200 mg/mL
DVS mass change occurring above 70% relative humidity ([5]; 25° C., above 70% RH): 0.46-0.53 wt. %
DVS Mass Change ([5]; listed as Freebase): 0.88-0.92 wt. %
DVS Mass Change [5, 11]: 0.88-0.92 wt. %
physical stability on humidity exposure ([1]; listed as free base): lost some crystallinity
physical stability in humid environment, prolonged ([1]; listed as free base): deliquesced
physical stability in humid environment, prolonged [1, 11]: physically unstable
physical stability in humid environment, prolonged ([1]; listed as freebase): turned into a sticky gum
behaviour on exposure to water [1, 11]: tends to gum
behaviour on exposure to water ([1]; listed as freebase): gums in water
